Results on eight compounds are retold here after patent US9682985B2, “(Indazol-4-yl) hexahydropyrrolopyrrolones and methods of use” (AbbVie Inc., priority 2015, dated 2017).

pIC50: −log10 of the molar value.

One experiment addresses T1, recombinant human Nav1.7 (Homo sapiens, UniProt Q15858).
T1 construct: expressed in transfected cells; host or cells: HEK293
As to the kind of experiment: FRET-based membrane potential assay, Nav1.7. In kind it is cell-based. Particulars: HEK293 cells expressing recombinant human Nav1.7; veratridine + scorpion venom depolarization.

In another experiment the target is T2, hERG channel (Kv11.1) (Homo sapiens, UniProt Q12809).
T2 construct: W. January (Wisconsin Alumni Research Foundation); host or cells: HEK-293
Description: hERG QPatch screening protocol (hERG current block). In kind it is cell-based. Particulars: HEK-293 cells stably transfected with hERG; tail current; room temperature. As for the experimental part: hERG QPatch Screening Protocol
Solutions and Compound Plates:
The bath solution contained (in mM): 140 NaCl, 5 KCl, 1 MgCl2, 2 CaCl2, 5 glucose, 20 HEPES, pH=7.4. The internal solution contained (in mM): 125 K-aspartate, 20 KCl, 10 EGTA, 5 MgATP, 1 MgCl2, 5 HEPES, pH=7.3.
Compound plates were prepared with an acoustic liquid handler (Echo® 550, Labcyte), using 384-well source plates and 96-well destination plates. Compounds were delivered to the destination plates as 300 nL spots in half-log increments (1, 3, 10 and 30 mM), dissolved in dimethyl sulfoxide. Plates were solvated with bath solution (300 μL) to final concentrations (1, 3, 10 and 30 μM; 0.1% dimethyl sulfoxide) and added to the QPatch workstation.
Cells and Cell Preparation:
Human embryonic kidney (HEK-293) cells, stably transfected with the hERG channel, were obtained from Dr. C. W. January (Wisconsin Alumni Research Foundation). Cells were initially maintained at 37° C. (5% CO2 atmosphere) in MEM supplemented media. Cells were cryo-preserved in 10% dimethyl sulfoxide, 90% fetal bovine serum at 10 M cells/mL. For electrophysiological studies, cells were thawed, resuspended in media at 1.0-1.5 M cells/mL and placed on the QPatch workstation.
QPatch Electrophysiology Workstation and Experimental Protocol:
Currents were recorded using QPatch HT (Sophion), an automated planar patch-clamp system. The QPatch uses forty-eight amplifiers and a 48-chamber QPlate positioned directly on top of the headstage. To obtain high resistant seals, cells are added to each chamber and allowed to settle for 10 seconds. Negative pressure is then applied to promote cell delivery to the patch chip openings on the chamber bottom. After formation of GΩ seals, negative pressure ramps are applied to obtain intracellular access. Access resistance was initially optimized by additional pressure ramps to assure the intracellular access was adequate for voltage clamp experiments (targeted access resistance <10 MΩ). Whole-cell compensation and series resistance compensation were used at 60% (both predicted and corrected). Experiments using QPatch were conducted at room temperature.
A single application of each concentration was applied to cells. During a five-minute wash-in period, a four-second depolarizing pulse to +20 mV, followed by a five-second repolarizing pulse to −50 mV was applied once every 15 seconds from a holding potential of −80 mV. Cells were exposed to four ascending concentrations of drug in half-log intervals.
Evaluation of hERG Current Block:
hERG tail current was measured as the difference in amplitude between a […] and the end of a five-second test pulse to −50 mV, preceded by a four-second pulse to +20 mV. The hERG IC50 values for compounds were determined from tail current analysis. The IC50 was calculated with a logistic fitting routine using the following equation: y=[(A1−A2)/(1+(x/IC50))^p]A2, where A1=initial×value, A2=final×value and p=power.

For another experiment, the target named is T3, recombinant human Nav1.8 (Homo sapiens, UniProt Q9Y5Y9).
T3 construct: host or cells: HEK293
Description: FRET-based membrane potential assay, Nav1.8. The experiment is classed as cell-based. Particulars: HEK293 cells expressing recombinant human Nav1.8; veratridine + scorpion venom depolarization.

In experiment [1] the test system is MIA-induced osteoarthritic pain in rats. Description: Osteoarthritic (OA) pain induced by sodium monoiodoacetate (MIA), hind limb grip force. In kind it is in vivo. Particulars: rat MIA-OA, 20 days after MIA. The method, then:
Osteoarthritic (OA) Pain Induced by Sodium Monoiodoacetate (MIA)
Pain behavior was assessed by measurement of hind limb grip force (GF) in adult osteoarthritic rats. Male Sprague Dawley rats, obtained from Charles River Laboratories, (Wilmington, Mass.), weighing 150-175 g, were injected in the unilateral knee join with a single intra-articular injection of sodium monoiodoacetate (MIA, 3 mg/rat). All rats were tested at 20 days following MIA injection. A behavioral measure of activity-induced pain was carried out. Measurements of the peak hind limb grip force were conducted by recording the maximum compressive force (CFmax), in grams of force, exerted on a hind limb strain gauge setup, in a commercially available grip force measurement system (Columbus Instruments, Columbus, Ohio).
During testing, each rat was gently restrained by grasping it around its rib cage and then allowed to grasp the wire mesh frame attached to the strain gauge. The experimenter then moved the animal in a rostral-to-caudal direction until the grip was broken. Each rat was sequentially tested twice at an approximately 2-3 minute interval to obtain a raw mean grip force (CFmax). This raw mean grip force data was in turn converted to a maximum hindlimb cumulative compressive force (CFmax), as the grams of force/kg of body weight, for each animal.
For evaluating the compound effects, the hind limb grip force was conducted 20 days following the intra-articular injection of MIA. A group of age-matched naïve (not injected with MIA) animals was added as a comparator to the drug-dosed groups. The vehicle control response for each group of MIA-treated animals was defined as the 0% response (0% effect), whereas the naïve control group was defined as the normal response and as 100% effect. The % effect for each dose group was expressed as % return of response to normalcy, compared to the naïve group. A percent maximal possible effect (% MPE) of testing compound was calculated according to the formula: (Treatment CFmax Vehicle CFmax)/Vehicle CFmax]×100). Higher % effect numbers indicate increased relief from the pain in the model, with 100% indicating a return to the level of response seen in normal (non-osteoarthritic) animals. All experiments evaluating drug effects in this model were conducted in a randomized blinded fashion.
The animals were housed in Association for Assessment and Accreditation of Laboratory Animal Care (AAALAC) approved facilities at AbbVie Inc. in a temperature-regulated environment under a controlled 12-hour light-dark cycle, with lights on at 6:00 a.m. Food and water were available ad libitum at all times except during testing. All testing was done following procedures outlined in protocols approved by AbbVie Inc.'s Institutional Animal Care and Use Committee.

The test system of experiment [2] is SNL-induced neuropathic pain in rats. As to the kind of experiment: Rat spinal nerve ligation (SNL) model of neuropathic pain, paw withdrawal threshold. In kind it is in vivo. Particulars: SNL dose 100 mg/kg. An excerpt:
Rat Spinal Nerve Ligation (SNL) Model of Neuropathic Pain.
A model of spinal nerve ligation-induced (SNL model) neuropathic pain as originally described by Kim and Chung (Kim, S. H. and J. M. Chung, 1992, Pain 50, 355) was used to test a compound of the present application. The male Sprague Dawley rats (Charles River Laboratories, Wilmington, Mass.), weighing 150-175 g at the time of surgery, were placed under isoflurane anesthesia and a 1.5 cm incision was made dorsal to the lumbosacral plexus. The paraspinal muscles (left side) were separated from the spinous processes, the left L5 and L6 spinal nerves isolated, and tightly ligated with 5-0 silk suture distal to the dorsal root ganglion. Care was taken to avoid ligating the L4 spinal nerve. Following spinal nerve ligation, a minimum of 7 days of recovery and no more than 3 weeks was allowed prior to the behavioral testing (mechanical sensitivity). Only rats with threshold scores ≦4.5 g were considered allodynic and utilized in pharmacological experiments.
Mechanical sensitivity was measured using calibrated von Frey filaments (Stoelting, Wood Dale, Ill.). Paw withdrawal threshold (PWT) was determined by using the Dixon's up-down method (Dixon, W. J., 1980, Ann. Rev. Pharmacol. Toxicol., 20, 441). Rats were placed into inverted individual plastic containers (20×12.5×20 cm) on top of a suspended wire mesh with a 1 cm^2 grid to provide access to the ventral side of the hind paws, and acclimated to the test chambers for 20 minutes. The von Frey filaments were presented perpendicularly to the plantar surface of the selected hind paw, and then held in this position for approximately 8 seconds with enough force to cause a slight bend in the filament. […] A 50% withdrawal threshold was determined using an up-down procedure (Dixon, 1980). A percent maximal possible effect (% MPE) of testing compound was calculated according to the formula: (Log [compound−treated threshold]−Log [vehicle−treated threshold])/(Log [maximum threshold]−Log [vehicle-treated threshold])×100%, where the maximum threshold was equal to 15 g. […]

T1 sequence (Q15858 whole entry): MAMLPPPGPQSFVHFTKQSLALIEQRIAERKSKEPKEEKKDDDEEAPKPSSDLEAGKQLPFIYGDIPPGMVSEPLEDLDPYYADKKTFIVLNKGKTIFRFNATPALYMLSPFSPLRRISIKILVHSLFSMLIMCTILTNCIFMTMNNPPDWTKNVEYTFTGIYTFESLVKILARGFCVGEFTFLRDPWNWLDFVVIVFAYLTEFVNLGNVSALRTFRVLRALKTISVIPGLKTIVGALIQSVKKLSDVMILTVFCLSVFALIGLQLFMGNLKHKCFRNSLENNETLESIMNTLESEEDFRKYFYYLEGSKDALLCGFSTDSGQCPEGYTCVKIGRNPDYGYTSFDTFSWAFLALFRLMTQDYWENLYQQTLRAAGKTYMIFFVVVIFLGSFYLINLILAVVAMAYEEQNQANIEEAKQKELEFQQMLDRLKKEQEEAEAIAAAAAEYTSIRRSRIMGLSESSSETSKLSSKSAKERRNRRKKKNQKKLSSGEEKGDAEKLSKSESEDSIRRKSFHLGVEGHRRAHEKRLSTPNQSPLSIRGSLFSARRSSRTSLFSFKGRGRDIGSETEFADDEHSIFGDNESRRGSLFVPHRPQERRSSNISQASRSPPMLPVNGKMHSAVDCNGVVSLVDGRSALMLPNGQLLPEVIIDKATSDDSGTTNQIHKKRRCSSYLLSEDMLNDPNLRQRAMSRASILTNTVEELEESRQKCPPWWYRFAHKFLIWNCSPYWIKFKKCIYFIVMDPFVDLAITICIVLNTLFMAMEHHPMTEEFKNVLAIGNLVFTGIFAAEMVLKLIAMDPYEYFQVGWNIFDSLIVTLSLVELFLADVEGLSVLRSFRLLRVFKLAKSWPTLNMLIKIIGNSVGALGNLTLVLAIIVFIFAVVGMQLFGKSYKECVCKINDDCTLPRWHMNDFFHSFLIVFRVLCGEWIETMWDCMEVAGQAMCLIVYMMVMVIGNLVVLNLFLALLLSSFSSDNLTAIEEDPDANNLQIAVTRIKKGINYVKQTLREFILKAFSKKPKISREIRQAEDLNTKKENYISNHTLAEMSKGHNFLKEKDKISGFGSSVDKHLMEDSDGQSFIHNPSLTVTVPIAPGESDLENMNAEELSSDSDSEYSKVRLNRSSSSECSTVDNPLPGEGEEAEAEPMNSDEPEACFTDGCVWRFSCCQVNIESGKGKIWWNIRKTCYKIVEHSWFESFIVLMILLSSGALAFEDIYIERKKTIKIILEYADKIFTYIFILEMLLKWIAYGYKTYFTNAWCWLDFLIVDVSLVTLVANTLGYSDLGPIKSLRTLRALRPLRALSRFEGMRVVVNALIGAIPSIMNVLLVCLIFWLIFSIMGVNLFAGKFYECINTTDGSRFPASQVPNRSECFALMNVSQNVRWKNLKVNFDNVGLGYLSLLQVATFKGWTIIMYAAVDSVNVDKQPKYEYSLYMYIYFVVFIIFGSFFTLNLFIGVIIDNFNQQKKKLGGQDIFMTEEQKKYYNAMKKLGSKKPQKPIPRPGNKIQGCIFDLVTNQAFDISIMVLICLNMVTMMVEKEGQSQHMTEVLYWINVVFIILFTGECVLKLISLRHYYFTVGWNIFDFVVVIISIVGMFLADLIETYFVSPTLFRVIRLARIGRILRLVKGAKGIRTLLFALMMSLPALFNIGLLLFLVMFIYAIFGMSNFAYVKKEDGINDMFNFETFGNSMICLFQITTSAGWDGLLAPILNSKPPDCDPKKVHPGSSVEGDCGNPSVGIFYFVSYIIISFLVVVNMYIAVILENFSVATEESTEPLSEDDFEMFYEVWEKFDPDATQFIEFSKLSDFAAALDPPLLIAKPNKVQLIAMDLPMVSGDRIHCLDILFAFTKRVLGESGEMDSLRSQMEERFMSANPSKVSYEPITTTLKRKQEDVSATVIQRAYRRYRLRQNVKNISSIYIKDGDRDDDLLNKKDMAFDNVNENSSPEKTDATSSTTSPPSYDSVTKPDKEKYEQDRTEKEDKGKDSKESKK
T2 sequence (Q12809 whole entry): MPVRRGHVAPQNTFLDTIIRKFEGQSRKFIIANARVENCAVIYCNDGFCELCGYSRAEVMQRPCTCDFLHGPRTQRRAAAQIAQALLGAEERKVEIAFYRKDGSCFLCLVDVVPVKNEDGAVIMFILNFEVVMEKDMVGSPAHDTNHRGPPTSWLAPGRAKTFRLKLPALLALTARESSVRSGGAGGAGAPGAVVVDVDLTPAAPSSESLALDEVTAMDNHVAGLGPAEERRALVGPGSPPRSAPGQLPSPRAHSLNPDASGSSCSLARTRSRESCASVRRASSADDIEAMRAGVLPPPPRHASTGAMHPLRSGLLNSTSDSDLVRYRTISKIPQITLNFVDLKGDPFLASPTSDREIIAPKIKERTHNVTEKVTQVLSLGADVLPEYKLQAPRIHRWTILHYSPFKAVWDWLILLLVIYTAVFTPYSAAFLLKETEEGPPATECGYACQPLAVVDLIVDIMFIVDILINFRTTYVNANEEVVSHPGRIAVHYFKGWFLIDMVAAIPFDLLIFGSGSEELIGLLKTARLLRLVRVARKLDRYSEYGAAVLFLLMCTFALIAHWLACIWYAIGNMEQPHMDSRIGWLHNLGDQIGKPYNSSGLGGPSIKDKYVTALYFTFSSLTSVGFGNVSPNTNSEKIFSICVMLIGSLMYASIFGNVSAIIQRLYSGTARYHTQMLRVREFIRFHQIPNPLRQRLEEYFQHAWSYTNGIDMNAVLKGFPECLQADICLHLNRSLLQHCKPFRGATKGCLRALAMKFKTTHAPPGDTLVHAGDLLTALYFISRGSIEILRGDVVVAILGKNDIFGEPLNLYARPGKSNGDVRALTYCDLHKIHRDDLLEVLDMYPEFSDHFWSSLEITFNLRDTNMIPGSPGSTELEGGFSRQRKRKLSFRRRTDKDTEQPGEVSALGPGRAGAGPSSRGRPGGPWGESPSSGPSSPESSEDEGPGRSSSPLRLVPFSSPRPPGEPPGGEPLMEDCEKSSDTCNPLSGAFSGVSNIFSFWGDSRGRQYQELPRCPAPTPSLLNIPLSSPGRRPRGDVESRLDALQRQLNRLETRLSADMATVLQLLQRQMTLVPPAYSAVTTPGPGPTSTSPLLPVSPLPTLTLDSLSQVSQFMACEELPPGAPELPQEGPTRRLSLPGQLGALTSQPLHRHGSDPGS
T3 sequence (Q9Y5Y9 whole entry): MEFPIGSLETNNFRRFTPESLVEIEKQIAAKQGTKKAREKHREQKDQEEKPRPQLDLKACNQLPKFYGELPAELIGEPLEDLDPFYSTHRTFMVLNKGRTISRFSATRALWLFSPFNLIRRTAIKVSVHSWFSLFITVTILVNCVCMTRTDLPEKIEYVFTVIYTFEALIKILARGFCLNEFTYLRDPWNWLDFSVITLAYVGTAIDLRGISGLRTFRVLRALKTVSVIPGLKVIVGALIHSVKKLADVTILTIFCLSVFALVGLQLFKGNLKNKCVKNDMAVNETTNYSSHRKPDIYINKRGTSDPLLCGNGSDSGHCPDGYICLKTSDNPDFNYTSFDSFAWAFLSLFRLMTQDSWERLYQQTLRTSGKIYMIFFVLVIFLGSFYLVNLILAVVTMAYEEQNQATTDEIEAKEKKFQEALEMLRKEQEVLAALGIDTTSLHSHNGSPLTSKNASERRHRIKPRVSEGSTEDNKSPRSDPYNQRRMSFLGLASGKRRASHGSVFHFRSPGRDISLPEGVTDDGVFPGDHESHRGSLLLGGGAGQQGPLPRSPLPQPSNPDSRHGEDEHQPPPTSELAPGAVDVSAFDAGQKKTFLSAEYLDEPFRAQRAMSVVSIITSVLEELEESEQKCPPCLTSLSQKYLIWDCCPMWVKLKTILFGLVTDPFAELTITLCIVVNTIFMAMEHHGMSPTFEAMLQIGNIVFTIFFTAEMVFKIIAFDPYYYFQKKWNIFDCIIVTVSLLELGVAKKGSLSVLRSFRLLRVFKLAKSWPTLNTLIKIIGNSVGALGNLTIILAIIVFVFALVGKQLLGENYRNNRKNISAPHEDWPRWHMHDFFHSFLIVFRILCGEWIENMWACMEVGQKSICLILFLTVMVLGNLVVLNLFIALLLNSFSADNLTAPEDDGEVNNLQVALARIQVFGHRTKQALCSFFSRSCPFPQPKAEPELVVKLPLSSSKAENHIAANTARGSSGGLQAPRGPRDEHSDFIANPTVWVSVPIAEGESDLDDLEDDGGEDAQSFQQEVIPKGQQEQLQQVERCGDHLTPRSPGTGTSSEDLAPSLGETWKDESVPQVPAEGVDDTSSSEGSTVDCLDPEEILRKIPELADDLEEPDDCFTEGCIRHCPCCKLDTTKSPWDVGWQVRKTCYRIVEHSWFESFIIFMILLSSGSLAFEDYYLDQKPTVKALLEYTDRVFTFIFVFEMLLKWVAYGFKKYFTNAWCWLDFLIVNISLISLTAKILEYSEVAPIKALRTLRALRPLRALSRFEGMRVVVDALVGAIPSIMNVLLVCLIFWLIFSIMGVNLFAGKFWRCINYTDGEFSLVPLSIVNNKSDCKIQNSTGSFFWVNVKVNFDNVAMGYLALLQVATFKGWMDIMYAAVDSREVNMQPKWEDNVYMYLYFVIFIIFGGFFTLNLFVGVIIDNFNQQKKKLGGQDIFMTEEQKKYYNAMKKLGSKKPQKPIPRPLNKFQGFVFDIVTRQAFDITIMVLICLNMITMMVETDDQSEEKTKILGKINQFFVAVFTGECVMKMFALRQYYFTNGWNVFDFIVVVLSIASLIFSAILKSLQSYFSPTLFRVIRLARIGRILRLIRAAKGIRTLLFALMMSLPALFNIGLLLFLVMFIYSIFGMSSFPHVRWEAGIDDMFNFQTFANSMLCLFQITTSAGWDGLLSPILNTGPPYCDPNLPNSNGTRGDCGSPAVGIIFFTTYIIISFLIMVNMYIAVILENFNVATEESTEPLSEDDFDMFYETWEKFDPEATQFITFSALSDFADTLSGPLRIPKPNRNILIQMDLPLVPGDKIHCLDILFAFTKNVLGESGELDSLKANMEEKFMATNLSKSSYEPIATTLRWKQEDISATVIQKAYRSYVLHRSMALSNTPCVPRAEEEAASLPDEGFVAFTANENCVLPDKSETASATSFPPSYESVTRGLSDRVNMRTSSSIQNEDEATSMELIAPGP

The pIC50 is the negative decadic logarithm of the IC50, by convention in mol/L. Consider `C[C@@H](O)CC(=O)N1CC[C@@H]2CN(c3cccc4c3cnn4-c3ccccc3F)C(=O)[C@@H]21` (mixture of isomers) [Example 7, (3aR*,6aR*)-5-[1-(2-fluorophenyl)-1H-indazol-4-yl]-1-[(3R)-3-hydroxybutanoyl]hexahydropyrrolo[3,4-b]pyrrol-6(1H)-one], for which the pIC50 on recombinant human Nav1.7 was 5.50; at hERG channel (Kv11.1), less than 4.52; on recombinant human Nav1.8, 5.51.

As for `O=C(CC1CCCO1)N1C[C@@H]2CN(c3cccc4c3cnn4-c3ccccc3F)C(=O)[C@H]2C1` (relative stereo) [Example 10, rel-(3aR,6aR)-2-[1-(2-fluorophenyl)-1H-indazol-4-yl]-5-(tetrahydrofuran-2-ylacetyl)hexahydropyrrolo[3,4-c]pyrrol-1(2H)-one], the “OA MPE” value in experiment [1] (OA dose 10 mg/kg) was determined as 74%. The “SNL MPE” value in experiment [2] is listed as 59%. Moreover, the pIC50 on recombinant human Nav1.7 was 5.68; against hERG channel (Kv11.1) it was less than 4.52.

Consider `CC(C)(O)CC(=O)N1CC[C@@H]2CN(c3cccc4c3cnn4-c3ccccc3F)C(=O)[C@@H]21` (single isomer, unassigned) [Example 1], for which, in experiment [1] (OA dose 30 mg/kg), the “OA MPE” value turned out to be 70%. Further, the pIC50 is less than 4.52 against hERG channel (Kv11.1) and 5.55 on recombinant human Nav1.8.

Consider `CC(C)(O)CC(=O)N1CC[C@H]2CN(c3cccc4c3cnn4-c3ccccc3F)C(=O)[C@H]21` (single isomer, unassigned) [Example 2], for which, in experiment [1] (OA dose 30 mg/kg), the “OA MPE” value stood at 62%. For the same compound, the pIC50 against hERG channel (Kv11.1) was less than 4.52; on recombinant human Nav1.8, 5.62.

For `CC(C)S(=O)(=O)N1C[C@@H]2CN(c3cccc4c3cnn4-c3ccccc3F)C(=O)[C@@H]2C1` [Example 24, (3aS,6aS)-2-[1-(2-fluorophenyl)-1H-indazol-4-yl]-5-(isopropylsulfonyl)hexahydropyrrolo[3,4-c]pyrrol-1 (2H)-one], in experiment [1] (OA dose 10 mg/kg), the “OA MPE” value is given as 66%. In addition, the pIC50 is 5.70 at recombinant human Nav1.7, 4.77 against hERG channel (Kv11.1) and 6.23 on recombinant human Nav1.8.

Turning to `O=C(C1CCOC1)N1C[C@@H]2CN(c3cccc4c3cnn4-c3ccccc3F)C(=O)[C@@H]2C1` (stereo partly drawn) [Example 32, (3aR,6aS)-2-[1-(2-fluorophenyl)-1H-indazol-4-yl]-5-(tetrahydrofuran-3-ylcarbonyl)hexahydropyrrolo[3,4-c]pyrrol-1(2H)-one], the “OA MPE” value in experiment [1] (OA dose 10 mg/kg) was 9%. The negative logarithm of the IC50 (pIC50) on recombinant human Nav1.7 is 5.77; on hERG channel (Kv11.1), 5.13.

As to `C[C@H](O)CC(=O)N1C[C@H]2CN(c3cccc4c3cnn4-c3ccccc3F)C(=O)[C@H]2C1` [Example 34, (3aS,6aR)-2-[1-(2-fluorophenyl)-1H-indazol-4-yl]-5-[(3S)-3-hydroxybutanoyl]hexahydropyrrolo[3,4-c]pyrrol-1(2H)-one], the “OA MPE” value in experiment [1] (OA dose 30 mg/kg) was 85%. In addition, the “SNL MPE” value in experiment [2] stood at 60%. The results for the pIC50 at recombinant human Nav1.7, against hERG channel (Kv11.1) and at recombinant human Nav1.8 were 5.00, less than 4.52 and 5.08, respectively.

For `CC(C)(O)CC(=O)N1C[C@H]2CN(c3cccc4c3cnn4-c3ccccc3F)C(=O)[C@H]2C1` [Example 35, (3aS,6aR)-2-[1-(2-fluorophenyl)-1H-indazol-4-yl]-5-(3-hydroxy-3-methylbutanoyl)hexahydropyrrolo[3,4-c]pyrrol-1(2H)-one], in experiment [1] (OA dose 30 mg/kg), the “OA MPE” value is on record as 99%. In experiment [2], the “SNL MPE” value is on record as 40%.
